This passage reports IC50 results from ChEMBL document CHEMBL1139024, “Synthesis and evaluation of an N-acylated photoactivatable analogue of glutathione as probe for glutathione-utilizing enzymes” (Bioorg Med Chem Lett, 2006).

Structures are written as SMILES. pIC50: −log10 of the molar value.

This assay in a line: Inhibition of glutathione S-transferase in rat liver.

In turn, `O=C(O)CNC(=O)[C@H](CS)NC(=O)CC[C@H](NC(=O)c1ccc(C(=O)c2ccccc2)cc1)C(=O)O` showed a negative-log IC50 (pIC50) of 3.00.

For orientation: pIC50 means the IC50 on a negative log10 scale, so that one unit is a factor of ten. A high value points to a low IC50.
